Results reported in ChEMBL document CHEMBL1125227, “Potential antitumor agents. 62. Structure-activity relationships for tricyclic compounds related to the colon tumor active drug 9-oxo-9H-xanthene-4-acetic acid” (J Med Chem, 1991).

What was measured:
Format in all cases: functional, organism-based
Conditions in all cases: Mus musculus
MC-38 [1] = experiment: In Vivo antitumor effect on subcutaneously implanted C38 colon tumor in mice and examined by histopathology and compared with control.( - = <50% hemorrhagic response) at optimal dose of 750 (mg/kg)
MC-38 [2] = experiment: In Vivo antitumor effect on subcutaneously implanted C38 colon tumor in mice and examined by histopathology and compared with control.( - = <50% hemorrhagic response) at optimal dose of 500 (mg/kg)
MC-38 [3] = experiment: In Vivo antitumor effect on subcutaneously implanted C38 colon tumor in mice and examined by histopathology and compared with control.( ++ = >90% hemorrhagic necrosis response) at optimal dose of 220 (mg/kg)
MC-38 [4] = experiment: In Vivo antitumor effect on subcutaneously implanted C38 colon tumor in mice and examined by histopathology and compared with control.( + = 50-90% hemorrhagic necrosis response) at optimal dose of 750 (mg/kg)
MC-38 [5] = experiment: In Vivo antitumor effect on subcutaneously implanted C38 colon tumor in mice and examined by histopathology and compared with control.(+ = 50-90% hemorrhagic necrosis response) at optimal dose of 750 (mg/kg)
MC-38 [6] = experiment: In Vivo antitumor effect on subcutaneously implanted C38 colon tumor in mice and examined by histopathology and compared with control.( - = <50% hemorrhagic response) at optimal dose of 330 (mg/kg)
MC-38 [7] = experiment: In Vivo antitumor effect on subcutaneously implanted C38 colon tumor in mice and examined by histopathology and compared with control.( + = 50-90% hemorrhagic necrosis response) at optimal dose of 500 (mg/kg)

Row | Structure (SMILES) | Activity (MC-38 [1]) | further results
1 | O=C(O)Cc1cccc2c1Oc1ccccc1CC2=O | <50% hemorrhagic response at optimal dose of 750 mg/kg | 
2 | O=C(O)Cc1cccc2c1Oc1ccccc1C2 |  | Activity (MC-38 [2]): <50% hemorrhagic response at optimal dose of 500 mg/kg
3 | O=C(O)Cc1cccc2c(=O)c3ccccc3[s+]([O-])c12 (stereo unspecified) | <50% hemorrhagic response at optimal dose of 750 mg/kg | 
4 | O=C(O)Cc1cccc2c1Oc1ccccc1[S+]2[O-] (stereo unspecified) | <50% hemorrhagic response at optimal dose of 750 mg/kg | 
5 | O=C(O)Cc1cccc2oc3ccccc3c12 | <50% hemorrhagic response at optimal dose of 750 mg/kg | 
6 | O=C(O)Cc1cccc2c1Oc1ccccc1O2 | <50% hemorrhagic response at optimal dose of 750 mg/kg | 
7 | O=C(O)Cc1cccc2nc3ccccc3nc12 | <50% hemorrhagic response at optimal dose of 750 mg/kg | 
8 | O=C(O)Cc1cccc2c(=O)c3ccccc3oc12 |  | Activity (MC-38 [3]): >90% hemorrhagic necrosis response at optimal dose of 220 mg/kg
9 | O=C(O)Cc1cccc2cc3ccccc3cc12 |  | Activity (MC-38 [4]): 50-90% hemorrhagic necrosis response at optimal dose of 750 mg/kg
10 | O=C(O)Cc1cccc2c1C(=O)c1ccccc1C2=O |  | Activity (MC-38 [5]): 50-90% hemorrhagic necrosis response at optimal dose of 750 mg/kg
11 | O=C(O)Cc1cccc2c1S(=O)(=O)c1ccccc1C2=O | <50% hemorrhagic response at optimal dose of 750 mg/kg | 
12 | O=C(O)Cc1cccc2c1Oc1ccccc1S2(=O)=O | <50% hemorrhagic response at optimal dose of 750 mg/kg | 
13 | O=C(O)Cc1cccc2c1Oc1ccccc1C(=O)C2 |  | Activity (MC-38 [4]): 50-90% hemorrhagic necrosis response at optimal dose of 750 mg/kg
14 | O=C(O)Cc1cccc2c(=O)c3ccccc3sc12 |  | Activity (MC-38 [6]): <50% hemorrhagic response at optimal dose of 330 mg/kg
15 | O=C(O)Cc1cccc2c1Oc1ccccc1S2 |  | Activity (MC-38 [6]): <50% hemorrhagic response at optimal dose of 330 mg/kg
16 | O=C(O)Cc1cccc2c1oc1ccccc12 |  | Activity (MC-38 [7]): 50-90% hemorrhagic necrosis response at optimal dose of 500 mg/kg
